Test results as given in US8691764B2, “Inhibitors of NF-κB activity” (The Research Foundation for the State University of New York, priority 2007, dated 2014).

Key:
NF-κB = assay: EMSA of NF-κB binding to κB probe, nuclear extract of treated BxPC-3 cells; format: cell-based, human; settings: BxPC-3 nuclear extract, 3 h
Procedure: The gel shift assays were carried out according to the manufacturer's protocol (Panomics). Nuclear proteins (10 μg) from each sample were mixed with 10 ng biotinylated p65 double-stranded oligonucleotide probes (5′-[…]-3′ and its complement) (SEQ ID NO:9) in the presence of 1 μg Poly(I/C) DNA. The mixture was incubated at room temperature for 30 min. The binding complex was then resolved using a 6% polyacrylamide/glycerol gel in 0.5% Tris-borate-EDTA, transferred onto a nylon membrane, and fixed on the membrane by UV cross-linking The biotin-labeled probe was detected with streptavidin-horseradish peroxidase. Co-immunoprecipitation was performed as follows: about 500 μg of cell extracts were incubated overnight with 5 μg of agarose-conjugated anti-p65 (Santa Cruz Biotechnology) or anti-annexin 1 antibody (Santa Cruz, Calif.). The precipitate was washed five times with washing buffer (Santa Cruz Biotechnology), dissolved in 2× Laemmli buffer, boiled, and separated by SDS-PAGE and detected by Western blot analysis using ECL™ (Amersham Biosciences) as described above. Control experiments were performed by using rabbit IgG for p65 and mouse IgG2b for annexin 1, respectively (Santa Cruz Biotechnology). […]

Bcl-xL = assay: NF-κB dependent gene (Bcl-xL) expression in epithelial cells of treated mice; format: in vivo; settings: wild-type and Min mice
Procedure: To assess whether these changes occur in vivo, the inventors studied isolated small intestine epithelial cells from Min mice and the corresponding wild type mice C57BL/6J (of which the Min mice are a congenic derivative) treated with NO-ASA 100 mg/kg or Dex 10 mg/kg daily for 7 days. Min (multiple intestinal neoplasia), a mutant allele of the murine APC (adenomatous polyposis coli) locus, encodes a nonsense mutation at codon 850. Heterozygous Min mutants spontaneously develop tumors in the intestine and represent a model of intestinal carcinogenesis (M. Lipkin et al., Ann. N.Y. Acad. Sci. 889:14-19 (1999); A. Moser, H. Pitot, W. Dove, Science 247:322-324 (1990)). The levels of annexin 1 were increased in both Min and wild-type mice treated with either NO-ASA or Dex (FIG. 7A and FIG. 8A). The induction of annexin 1 by NO-ASA or Dex was accompanied by the inhibition of NF-κB activity (FIGS. 7B and 8B).

pancreatic cancer = settings: animal tumor model; cited from earlier work
HT-29 cells = assay: MTT cell growth assay, HT-29; format: cell-based, human; settings: at 24 h; read-out: Inhibition of HT-29 cell growth IC50
NF-κB p65 = assay: Confocal microscopy co-localization of annexin 1 and p65, BxPC-3 cells; format: cell-based, human; settings: 3 h, NO-ASA 20 μM or Dex 4 μM
Procedure: BxPC-3 cells were seeded on cover-glasses in a 12-well plate for 24 h. The cells were exposed to 10 or 20 μM NO-ASA or 2 or 4 μM Dex for 3 h, fixed with 4% paraformaldehyde in PBS containing 30 mM sucrose, permeabilized with 0.2% saponin in PBS containing 30 mM sucrose, and blocked with 5% normal goat serum in PBS containing 1% BSA. The cells were incubated with mouse monoclonal IgG2b anti-annexin 1 (Santa Cruz Biotechnology) and rabbit monoclonal IgG anti-p65 (Cell Signaling, MA) at RT for 1 h. After three washes with PBS containing 1% BSA, the cells were incubated with Alexa555 conjugated donkey anti-mouse IgG (Molecular Probes) and Alexa 488 conjugated goat anti-rabbit IgG (Molecular Probes) at RT for an hour. Images were acquired with a Zeiss LSM 510 META NLO Two-Photon Laser Scanning Image Confocal Microscope and the colocalization scores were generated by the Colocalization Macro program. The control experiments were performed using non-specific mouse IgG2b and/or rabbit IgG. Red fluorescence localized annexin 1, green fluorescence localized p65 (NF-κB) and co-localization of the two proteins generated yellow fluorescence.

[1] = tested on: BxPC-3 human pancreatic cancer cells; assay: MTT cell growth assay, BxPC-3; format: cell-based; settings: 24 hours
Procedure: The growth of the cells at 24 hours was determined using the MTT assay, which was carried out according to the manufacturer's protocol (Sigma). BxPC-3 cells were seeded in a 96-well plate and cultured in RPMI 1640 medium supplemented with 10% fetal bovine serum and 1% penicillin/streptomycin, as described above. […] MTT solution (M-0283) in an amount equal to 10% of the culture medium volume was then added to each well and the cells were incubated for 4 hours. The resulting MTT formazan crystals were dissolved by adding MTT Solvent (M-0408) directly to the culture in an amount equal to the original culture volume with gentle stirring and then quantitated by an ELISA Model 680 Microplate Reader (Biorad).

Substance: nitric oxide-donating aspirin [NO-ASA]
- binding of NF-κB to the DNA probe (EMSA) (NF-κB): inhibited the binding of NF-κB to the DNA probe in a concentration-dependent manner
- binding of NF-κB to the DNA probe (EMSA) at 20 μM (NF-κB; 20 μM NO-ASA): substantial suppression of binding
- NF-κB dependent gene expression (Bcl-xL) (Bcl-xL): inhibited NF-κB dependent gene expression
- prevention of pancreatic cancer (pancreatic cancer): almost completely prevents pancreatic cancer
- IC50 (HT-29 cells): 18.8 µM
- co-localization of annexin 1 and p65 (NF-κB p65): co-localize most strongly in the nucleus
- growth of BxPC-3 cells [1]: inhibits the growth
